Test results: PubChem BioAssay AID602335 (The Scripps Research Institute Molecular Screening Center, 2012)
Calls of active or inactive are those of the source. The rule behind the calls is not given here.

Experiments:
[1] = biological target: Diacylglycerol lipase-beta (Mus musculus) (UniProt Q91WC9); experiment: ABHD6 anti-target inhibition potency, dose response, selectivity assay for DAGLb inhibitor project, cell-based, gel-based competitive ABPP, fluorescence, in situ (AID 602335); conditions: DAGLb
[2] = biological target: Monoacylglycerol lipase ABHD6 (Mus musculus) (UniProt Q8R2Y0); experiment: as above
Chain of Monoacylglycerol lipase ABHD6 (Mus musculus) (Q8R2Y0 whole entry, looked up): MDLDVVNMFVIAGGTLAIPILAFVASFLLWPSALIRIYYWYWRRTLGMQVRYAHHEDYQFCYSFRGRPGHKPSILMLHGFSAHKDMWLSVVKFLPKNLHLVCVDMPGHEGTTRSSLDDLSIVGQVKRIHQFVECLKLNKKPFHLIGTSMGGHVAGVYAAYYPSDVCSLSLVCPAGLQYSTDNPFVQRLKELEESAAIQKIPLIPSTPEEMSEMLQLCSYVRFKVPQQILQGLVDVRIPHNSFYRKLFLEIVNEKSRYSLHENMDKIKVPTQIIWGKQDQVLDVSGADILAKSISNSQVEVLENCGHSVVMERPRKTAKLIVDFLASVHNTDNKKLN

Chain of Diacylglycerol lipase-beta (Mus musculus) (Q91WC9 whole entry, looked up): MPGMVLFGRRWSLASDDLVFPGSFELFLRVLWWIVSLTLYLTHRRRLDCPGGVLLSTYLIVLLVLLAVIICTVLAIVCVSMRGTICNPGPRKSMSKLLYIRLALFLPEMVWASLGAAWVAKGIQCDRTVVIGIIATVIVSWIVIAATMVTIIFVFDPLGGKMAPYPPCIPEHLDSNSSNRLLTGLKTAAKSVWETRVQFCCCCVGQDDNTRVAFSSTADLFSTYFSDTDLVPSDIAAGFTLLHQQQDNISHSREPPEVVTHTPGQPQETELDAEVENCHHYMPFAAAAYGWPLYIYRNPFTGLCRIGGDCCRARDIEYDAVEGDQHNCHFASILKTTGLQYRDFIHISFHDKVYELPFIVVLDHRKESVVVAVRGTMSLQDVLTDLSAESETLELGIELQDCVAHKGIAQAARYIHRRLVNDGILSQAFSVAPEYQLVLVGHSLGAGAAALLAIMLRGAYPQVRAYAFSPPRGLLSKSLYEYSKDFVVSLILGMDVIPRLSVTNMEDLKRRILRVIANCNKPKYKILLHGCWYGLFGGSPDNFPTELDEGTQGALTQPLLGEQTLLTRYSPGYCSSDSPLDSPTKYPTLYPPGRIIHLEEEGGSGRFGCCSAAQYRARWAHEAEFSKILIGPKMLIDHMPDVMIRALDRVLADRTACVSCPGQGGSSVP

IC50 [1] | IC50 [2] [nM] | SMILES
> 100 nM (inactive) |  | O=C(O)c1cccc(-c2ccc(-c3cn(C(=O)N4CCCCC4Cc4ccccc4)nn3)cc2)c1 (stereo unspecified)
> 100 nM (inactive) |  | O=C(N1CCCCC1c1ccccc1)n1cc(-c2ccc(-c3cccc(CO)c3)cc2)nn1 (stereo unspecified)
> 100 nM (inactive) | 1.3 | COc1ccc(-c2ccc(-c3cn(C(=O)N4CCCCC4c4ccccc4)nn3)cc2)cc1 (stereo unspecified)
> 100 nM (inactive) | 0.17 | O=C(N1CCCCC1c1ccccc1)n1cc(-c2ccc(-c3ccccc3)cc2)nn1 (stereo unspecified)
